According to US20230255935A1, “ANTI-VIRAL COMPOUNDS AND METHODS FOR SCREENING SAME AND TREATING VIRAL INFECTIONS” (priority 2020, published 2023):

Biological target: full-length MERS-CoV N protein (Middle East respiratory syndrome-related coronavirus, UniProt K9N4V7)

In the case of CN(C)Cc1c[nH]c2ccc(OCc3ccccc3)cc12 [PSX-01, 5-benzyloxygramine], the “radius of gyration (Rg) of N protein” value is reported as 65.
